Experimental data published in patent US11779550B2, “Bisphenol ether derivatives and methods for using the same” (THE UNIVERSITY OF BRITISH COLUMBIA, priority 2015, dated 2023).
Read-outs that look alike come from different tables or passages of the source.

Target: T1, androgen receptor (AR) (Homo sapiens, UniProt P10275, T878A)
T1 construct: endogenous in cells; host or cells: LNCaP
T1 sequence (P10275 1-920 T878A): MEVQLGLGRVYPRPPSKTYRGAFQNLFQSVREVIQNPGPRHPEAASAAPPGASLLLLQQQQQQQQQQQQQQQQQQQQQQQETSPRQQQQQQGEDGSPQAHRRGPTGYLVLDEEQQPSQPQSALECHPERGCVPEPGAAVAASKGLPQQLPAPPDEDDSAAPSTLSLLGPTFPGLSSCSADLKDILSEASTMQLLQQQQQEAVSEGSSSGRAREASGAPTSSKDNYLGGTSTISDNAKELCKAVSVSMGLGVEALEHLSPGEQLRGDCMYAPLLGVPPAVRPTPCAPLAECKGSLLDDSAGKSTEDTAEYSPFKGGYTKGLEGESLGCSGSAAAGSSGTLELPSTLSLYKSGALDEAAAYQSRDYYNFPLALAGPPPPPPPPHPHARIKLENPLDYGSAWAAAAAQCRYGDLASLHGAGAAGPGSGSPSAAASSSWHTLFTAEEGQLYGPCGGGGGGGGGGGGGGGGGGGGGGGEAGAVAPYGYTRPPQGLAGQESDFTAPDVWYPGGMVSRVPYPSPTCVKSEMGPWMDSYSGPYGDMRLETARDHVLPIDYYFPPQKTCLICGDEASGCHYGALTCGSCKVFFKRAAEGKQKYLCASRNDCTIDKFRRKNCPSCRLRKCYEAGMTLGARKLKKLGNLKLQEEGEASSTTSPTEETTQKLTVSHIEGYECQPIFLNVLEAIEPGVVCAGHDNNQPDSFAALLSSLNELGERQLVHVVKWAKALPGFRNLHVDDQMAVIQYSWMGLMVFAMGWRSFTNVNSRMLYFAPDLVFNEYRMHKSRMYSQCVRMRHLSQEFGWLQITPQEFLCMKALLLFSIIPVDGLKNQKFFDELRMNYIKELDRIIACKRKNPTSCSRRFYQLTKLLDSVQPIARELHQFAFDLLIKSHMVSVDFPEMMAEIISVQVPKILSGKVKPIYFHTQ
Experiment: PSA (6.1 kb)-luciferase reporter assay in LNCaP cells induced with R1881
Assay type: cell-based
Conditions: LNCaP cells transfected with PSA (6.1 kb)-luciferase, 1 h pre-treatment, R1881 (1 nM) 24 h
Experimental: LNCaP cells were transiently transfected with PSA (6.1 kb)-luciferase for 24 h prior to pre-treatment with compounds of the invention (e.g., Compound 1c) ranging in concentration from 62.5 ng/ml to 1.5 ug/ml for 1 hour before the addition of vehicle, or synthetic androgen, R1881 (1 nM) to induce luciferase production. After 24 h of incubation with R1881, the cells were harvested, and relative luciferase activities were determined. To determine the IC50, treatments were normalized to the predicted maximal activity induction (in the absence of test compounds, vehicle only).

- IC50 (Trial 1, read-out: IC50, Trial 1): 14 µM
- IC50 (Trial 2, read-out: IC50, Trial 2): 19.4 µM
- IC50 (Trial 3, read-out: IC50, Trial 3): 17 µM
- IC50 (Trial 4, read-out: IC50, Trial 4): 15.8 µM
- IC50 (average of trials, read-out: Average IC50): 16.7 ± 2.68 µM
Compound: CC(C)(c1ccc(OC[C@H](O)CO)cc1)c1ccc(OC[C@@H](Cl)CO)cc1 [Compound 1c, (R)-3-(4-(2-(4-((S)-2-chloro-3-hydroxypropoxy)phenyl)propan-2-yl)phenoxy)propane-1,2-diol]
